Each structure is given as a SMILES string. Values joined by “and” are separate entries in the source; they are usually repeats but may differ in a detail not shown here. Equal entries are not always repeated. Where two headings read alike, the source gives them in different places.

Common to all, as to format: binding, Petunia hybrida
One experiment addresses recombinant PhnsLTP2. The experiment is described as follows: TNS displacement assay with recombinant PhnsLTP2. To be noted: for Kd: PhnsLTP2 1 µM, TNS 3 µM, non-linear fitting to Michaelis-Menten equation, means ± S.E., n = 3, read-out: dissociation constant Kd (PhnsLTP2). Here is the method: (§1) To directly test whether PhnsLTP3 can bind petunia VOCs, in vitro displacement assays were performed using the recombinant PhnsLTP3 protein and fluorescent 6-(p-toluidino)−2-naphthalenesulfonate (TNS) in the presence of petunia volatiles. […] TNS fluoresces strongly when bound to the hydrophobic regions of the protein, while it has weak fluorescence in an aqueous solution. […] Potential ligands of the protein will displace the bound TNS from the hydrophobic protein pocket into the aqueous environment leading to a decrease in the fluorescent signal, which was used to calculate the dissociation constant of the protein with ligand. […] To test whether PhnsLTP2 and PhnsLTP3 can bind other VOCs, we assayed the terpenoids: limonene, linalool, and nerolidol, as well as methyl jasmonate in TNS displacement assays. Both PhnsLTP2 and PhnsLTP3 were able to bind tested volatile compounds with Kds in the micromolar range (Supplementary Figs. 16 and 17).
(§2) The fluorescence-based-binding assays were performed largely according to previous publications[12],[52] with slight modifications. […] All mixtures were excited at 320 nm, and the fluorescence emission at 437 nm was recorded using a plate reader (SpectraMax iD3, Molecular Devices) at equilibrium after 5 min of incubation at 25 °C giving the background fluorescence Fmix0 and FTNS0 . The tested ligands dissolved in 2 µL DMSO were then added to the mixtures and TNS only to different final concentrations, and the fluorescence emissions were recorded at equilibrium after 5 min of incubation ( Fmixligand and FTNSligand ). To account for the change in the TNS fluorescence intensity upon adding the solvent DMSO, the background fluorescence of TNS ( FTNSsol ) as well as each PhnsLTP with TNS ( Fmixsol ) were measured. The ratios RTNS=FTNSsol/FTNS0 and Rmix=Fmixsol/Fmix0 were calculated to calibrate the fluorescence. Three measurements were taken for each concentration. The results were expressed as a percentage of fluorescence quenched Fmixligand/Rmix−FTNSligand/RTNS/Fmix0−FTNS0×100% . The corresponding dissociation constants kd were obtained by non-linear regression fitting of the binding kinetics to the Michaelis-Menten equation.
Supplementary Figure 16 | Binding kinetics of recombinant PhnsLTP2 with phenylpropanoids/benzenoids by petunia flowers, terpenoids and methyl jasmonate.
TNS displacement assays were performed at fixed concentrations of PhnsLTP2 (1 µM) and TNS (3 µM) and the fluorescence was measured before and after the tested compounds were added at various concentrations. The results are expressed as percentage of fluorescence quenched with respect to the concentration of added compound. The binding curves were obtained by non-linear fitting to the Michaelis-Menten equation (solid line in the graph) and the dissociation constants Kd [µM] were obtained. Phenylacetaldehyde, eugenol, and […]
corresponding binding curves. All data are means ±S.E. (n = 3 biological replicates).

The target of another experiment is recombinant PhnsLTP3. The experiment is described as follows: TNS displacement assay with recombinant PhnsLTP3. To be noted: for Kd / Percentage fluorescence quenched: PhnsLTP3 1 µM, TNS 3 µM; for Kd: means ± S.E., n = 3; for Percentage fluorescence quenched: three biological replicates (c2-c4); for Percentage fluorescence quenched (%): biological replicates 1-3, Supplementary Figure 16. Here is the method:
as §1
Fig. 5 Binding kinetics of recombinant PhnsLTP3 with VOCs emitted by petunia flowers. TNS displacement assays were performed at fixed concentrations of PhnsLTP3 (1 µM) and TNS (3 µM) and the fluorescence was measured before and after the tested compounds were added at various concentrations. The results are expressed as percentage of fluorescence quenched with respect to the concentration of added compound. The binding curves were obtained by non-linear fitting to the Michaelis-Menten equation (solid line in the graph) and the dissociation constants Kd [µM] were obtained. […] All data are means ± S.E. (n = 3 biological replicates).
as §2
The binding curves of PhnsLTP3 with various VOC compounds were obtained by non-linear fitting to the one-binding-site (Eq. (1)) and two-binding-site (Eq. (2)) models. The equations assume that the ligand binds to multiple independent binding sites and that the binding to each site follows the law of mass action:1 %offluorescencequenched=Bmax×[TNS]/kd+[TNS] 2 %offluorescencequenched=Bmax1×[TNS]/kd1+[TNS]+Bmax2×[TNS]/kd2+[TNS] […]
PhnsL TP3 (1 µ M)and TNS (3 µ M)and the fluorescence was measured before and after the tested compounds were added at various concentrations. The results are expressed as percentage of fluorescence quenched with respect to the concentration of added compound.
The binding curves were obtained by non-linear fitting to the Michaelis-Menten equation (solid line in the graph) and the dissociation constants Kd [µ M]were obtained. All data are means ±S.E. (n = 3 biological replicates).
Supplementary Figure 25 | Analysis of number of binding sites of PhnsLTP3.
TNS displacement assay was performed at fixed concentrations of PhnsLTP3 (1 µM) and TNS (3 µM) and the fluorescence was measured before and after methyl […]

Another experiment concerns PhnsLTP1. Briefly: Activity of PhnsLTP1 with TNS (TNS fluorescence). How it is done: (§3) To directly test whether PhnsLTP3 can bind petunia VOCs, in vitro displacement assays were performed using the recombinant PhnsLTP3 protein and fluorescent 6-(p-toluidino)−2-naphthalenesulfonate (TNS) in the presence of petunia volatiles. […] TNS fluoresces strongly when bound to the hydrophobic regions of the protein, while it has weak fluorescence in an aqueous solution. […] Potential ligands of the protein will displace the bound TNS from the hydrophobic protein pocket into the aqueous environment leading to a decrease in the fluorescent signal, which was used to calculate the dissociation constant of the protein with ligand. […]
(§4) The fluorescence-based-binding assays were performed largely according to previous publications[12],[52] with slight modifications. […] All mixtures were excited at 320 nm, and the fluorescence emission at 437 nm was recorded using a plate reader (SpectraMax iD3, Molecular Devices) at equilibrium after 5 min of incubation at 25 °C giving the background fluorescence Fmix0 and FTNS0 . The tested ligands dissolved in 2 µL DMSO were then added to the mixtures and TNS only to different final concentrations, and the fluorescence emissions were recorded at equilibrium after 5 min of incubation ( Fmixligand and FTNSligand ). […] The ratios RTNS=FTNSsol/FTNS0 and Rmix=Fmixsol/Fmix0 were calculated to calibrate the fluorescence. […]

A further experiment concerns PhnsLTP2. The experiment is described as follows: Activity of PhnsLTP2 with TNS (TNS fluorescence). To be noted: three biological replicates (c2-c4); listed as PhnsLTP2+TNS. How it is done:
as §3, §4

The subject of another experiment is PhnsLTP3. The experiment is described as follows: Activity of PhnsLTP3 with TNS (TNS fluorescence). As to conditions: for TNS fluorescence with boiled PhnsLTP3: three biological replicates. How it is done: as §1, §2
Supplementary Figure 15 | Protein purification and characterization of PhnsLTP1, PhnsLTP2, and PhnsLTP3 activity with TNS. a, SDS-PAGE analysis of PhnsLTP1 after affinity chromatography on Ni-NTA agarose (lane A) and subsequent cation exchange chromatography on HiTrapTM SP HP-Cytiva (lane B). 5.3 µg protein were loaded per each lane .b, SDS-PAGE analysis of 8.75 µg of purified PhnsLTP 1, PhnsLTP 2 , and PhnsLTP 3. […] P values were determined by one-way ANOVA with the Tukey’s multiple comparisons test relative to TNS background (black) and boiled PhnsLTP3 in the presence of 200 mM DTT (blue). […]

[1] abbreviates: non-linear fitting to Michaelis-Menten equation (one binding site), read-out: dissociation constant Kd (PhnsLTP3).

For the compound `COC(=O)c1ccccc1` [Methylbenzoate], the Kd at recombinant PhnsLTP2 was 534 ± 302 µM; on recombinant PhnsLTP3 (setting [1]) it was 271 ± 91.1 µM; at recombinant PhnsLTP3 (two-binding-site fit, read-out: dissociation constant Kd1 (PhnsLTP3, two-binding-site model)) it was 521 ± 89.5 µM; on recombinant PhnsLTP3 (two-binding-site fit, read-out: dissociation constant Kd2 (PhnsLTP3, two-binding-site model)), 2 ± 1.9 µM. Further, the Percentage fluorescence quenched in the experiment on recombinant PhnsLTP3 (VOC concentration 3 µM) was 6.48% and 6.57% (2×); with recombinant PhnsLTP3 (VOC concentration 30 µM), 10.07% and 16.15% and 14.94%; with recombinant PhnsLTP3 (VOC concentration 300 µM) it was 37.30% and 35.09% and 38.77%; with recombinant PhnsLTP3 (VOC concentration 1500 µM) it was 74.64% and 66.75% and 71.33%; in the experiment with recombinant PhnsLTP3 (VOC concentration 3000 µM) it was 78.82% and 71.40% and 74.18%. Besides, the “Percentage fluorescence quenched (%)” value is 8.70% and 11.37% and 17.83% in the experiment on recombinant PhnsLTP3 (VOC concentration 3 µM); 3.75% and 8.76% and 8.44% with recombinant PhnsLTP3 (VOC concentration 30 µM); 16.10% and 21.79% and 13.64% in the experiment with recombinant PhnsLTP3 (VOC concentration 300 µM); 40.72% and 46.43% and 46.19% with recombinant PhnsLTP3 (VOC concentration 1500 µM); 46.60% and 49.81% and 49.98% in the experiment on recombinant PhnsLTP3 (VOC concentration 3000 µM).
Take `C=CC(C)(O)CCC=C(C)C` (stereo not drawn) [Linalool]: the values for the Kd on recombinant PhnsLTP2 and on recombinant PhnsLTP3 (setting [1]) were 501 ± 35.8 µM and 299 ± 52.4 µM, respectively.
Turning to `Cc1ccc(Nc2ccc3cc(S(=O)(=O)O)ccc3c2)cc1` [TNS, 6-(p-toluidino)−2-naphthalenesulfonate], the “TNS-binding activity of PhnsLTP1 (in words)” value in the experiment on PhnsLTP1 is “did not display TNS-binding activity”. The “TNS fluorescence with PhnsLTP1” value in the experiment with PhnsLTP1 (three biological replicates (c2-c4), listed as PhnsLTP1+TNS) was 198735 A.U. and 195455 A.U. and 188087 A.U. Moreover, in the experiment on PhnsLTP2, the “TNS fluorescence with PhnsLTP2” value is 1288048 A.U. and 1292857 A.U. and 1304928 A.U. The “TNS fluorescence with boiled PhnsLTP3” value was 508777 A.U. and 481415 A.U. and 534530 A.U in the experiment on PhnsLTP3 (boiled PhnsLTP3 in the presence of 200 mM DTT (negative control), listed as Boiled PhnsLTP3+TNS (200 mM DTT)); 531842 A.U. and 534148 A.U. and 522476 A.U in the experiment on PhnsLTP3 (boiled PhnsLTP3 in the presence of 400 mM DTT (negative control), listed as Boiled PhnsLTP3+TNS (400 mM DTT)). Also, in the experiment on PhnsLTP3 (relative to buffer and denatured, dithiothreitol-reduced PhnsLTP3 controls), the “TNS fluorescence in the presence of PhnsLTP3 (in words)” value is on record as “intense TNS fluorescence”. Moreover, in the experiment on PhnsLTP3 (three biological replicates (c2-c4), listed as PhnsLTP3+TNS), the “TNS fluorescence with PhnsLTP3” value was 1399068 A.U. and 1386931 A.U. and 1338392 A.U.
For the compound `CC/C=C\CC1C(=O)CCC1CC(=O)OC` (stereo not drawn) [Methyl jasmonate], the Kd at recombinant PhnsLTP2 was determined as 184 ± 96.5 µM; on recombinant PhnsLTP3 (setting [1]) it was 253 ± 112 µM. In addition, the “Percentage fluorescence quenched (%)” value with recombinant PhnsLTP2 (VOC concentration 1500 µM, biological replicates 1-3, Supplementary Figure 17) is 75.75% and 76.43% and 72.92%.
For `O=C(OCc1ccccc1)c1ccccc1` [Benzylbenzoate], the figures for the Kd on recombinant PhnsLTP2 and at recombinant PhnsLTP3 (setting [1]) were 21.8 ± 8.8 µM and 6.5 ± 2.7 µM, respectively. The Percentage fluorescence quenched is 31.47% and 9.59% and 36.79% in the experiment with recombinant PhnsLTP3 (VOC concentration 1 µM); 33.25% and 16.42% and 33.70% in the experiment with recombinant PhnsLTP3 (VOC concentration 3 µM); 25.37% and 28.56% and 39.27% in the experiment on recombinant PhnsLTP3 (VOC concentration 5 µM); 59.42% and 53.23% and 61.87% in the experiment on recombinant PhnsLTP3 (VOC concentration 12 µM); 72.95% and 50.76% and 70.40% in the experiment with recombinant PhnsLTP3 (VOC concentration 30 µM).

The values are drawn from paper PMC9852552, “Emission of floral volatiles is facilitated by cell-wall non-specific lipid transfer proteins” (Nature Communications, 2023).
